{
  "source": "paper PMC7744439",
  "about": "(European journal of medicinal chemistry, 2020)",
  "key": {"HDAC2": {"target": "HDAC2 (Homo sapiens, UniProt Q92769)", "sequence (Q92769 whole entry, species assumed)": "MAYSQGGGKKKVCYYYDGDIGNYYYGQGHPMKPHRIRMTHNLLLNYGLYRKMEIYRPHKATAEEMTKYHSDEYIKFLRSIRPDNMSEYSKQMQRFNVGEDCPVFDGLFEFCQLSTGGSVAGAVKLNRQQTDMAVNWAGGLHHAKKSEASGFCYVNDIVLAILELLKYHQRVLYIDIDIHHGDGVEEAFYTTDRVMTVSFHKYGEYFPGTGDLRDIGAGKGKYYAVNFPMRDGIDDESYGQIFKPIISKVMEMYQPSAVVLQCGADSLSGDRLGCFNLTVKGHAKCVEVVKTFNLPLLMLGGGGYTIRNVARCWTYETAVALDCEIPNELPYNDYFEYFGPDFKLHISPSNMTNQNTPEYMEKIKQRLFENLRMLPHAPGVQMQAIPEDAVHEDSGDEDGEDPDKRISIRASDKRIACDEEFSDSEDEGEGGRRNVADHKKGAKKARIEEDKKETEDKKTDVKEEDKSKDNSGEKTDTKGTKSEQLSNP", "experiment": "HDAC2 enzymatic inhibition", "format": "biochemical"}, "HDAC6 [1]": {"target": "T1, HDAC6 (Homo sapiens, UniProt Q9UBN7)", "T1 sequence (Q9UBN7 1-1215)": "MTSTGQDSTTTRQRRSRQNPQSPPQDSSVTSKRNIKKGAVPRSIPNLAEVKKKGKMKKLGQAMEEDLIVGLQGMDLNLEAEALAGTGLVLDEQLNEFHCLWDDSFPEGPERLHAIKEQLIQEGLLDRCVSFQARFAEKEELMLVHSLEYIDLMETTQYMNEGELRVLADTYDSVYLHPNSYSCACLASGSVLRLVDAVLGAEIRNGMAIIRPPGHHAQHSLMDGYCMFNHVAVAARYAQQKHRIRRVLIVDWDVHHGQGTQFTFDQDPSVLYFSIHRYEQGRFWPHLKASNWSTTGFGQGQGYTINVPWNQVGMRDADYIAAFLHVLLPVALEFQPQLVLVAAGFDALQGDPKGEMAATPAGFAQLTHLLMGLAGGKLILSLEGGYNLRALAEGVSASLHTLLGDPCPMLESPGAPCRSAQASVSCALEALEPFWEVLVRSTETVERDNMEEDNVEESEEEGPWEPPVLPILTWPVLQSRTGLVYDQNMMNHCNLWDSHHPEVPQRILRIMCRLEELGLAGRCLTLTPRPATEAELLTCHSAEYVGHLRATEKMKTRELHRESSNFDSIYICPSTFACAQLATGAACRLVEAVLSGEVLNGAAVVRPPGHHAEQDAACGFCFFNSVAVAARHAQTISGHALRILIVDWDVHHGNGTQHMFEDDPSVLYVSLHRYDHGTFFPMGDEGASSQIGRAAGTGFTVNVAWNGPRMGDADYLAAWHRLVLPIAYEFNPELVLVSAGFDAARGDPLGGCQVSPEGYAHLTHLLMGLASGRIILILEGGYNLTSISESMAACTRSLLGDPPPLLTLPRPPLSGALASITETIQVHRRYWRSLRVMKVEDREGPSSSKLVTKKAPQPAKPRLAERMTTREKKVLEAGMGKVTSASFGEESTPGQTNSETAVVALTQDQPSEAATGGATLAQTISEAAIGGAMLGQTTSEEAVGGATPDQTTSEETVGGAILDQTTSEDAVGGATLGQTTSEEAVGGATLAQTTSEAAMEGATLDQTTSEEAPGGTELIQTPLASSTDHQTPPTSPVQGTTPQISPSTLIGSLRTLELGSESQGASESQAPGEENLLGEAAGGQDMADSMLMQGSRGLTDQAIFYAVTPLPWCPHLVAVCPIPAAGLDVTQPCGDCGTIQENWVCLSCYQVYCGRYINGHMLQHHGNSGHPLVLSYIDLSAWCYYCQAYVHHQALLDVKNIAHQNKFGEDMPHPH", "experiment": "HDAC6 enzymatic inhibition", "format": "biochemical"}, "HDAC1": {"target": "HDAC1 (Homo sapiens, UniProt Q13547)", "sequence (Q13547 whole entry, species assumed)": "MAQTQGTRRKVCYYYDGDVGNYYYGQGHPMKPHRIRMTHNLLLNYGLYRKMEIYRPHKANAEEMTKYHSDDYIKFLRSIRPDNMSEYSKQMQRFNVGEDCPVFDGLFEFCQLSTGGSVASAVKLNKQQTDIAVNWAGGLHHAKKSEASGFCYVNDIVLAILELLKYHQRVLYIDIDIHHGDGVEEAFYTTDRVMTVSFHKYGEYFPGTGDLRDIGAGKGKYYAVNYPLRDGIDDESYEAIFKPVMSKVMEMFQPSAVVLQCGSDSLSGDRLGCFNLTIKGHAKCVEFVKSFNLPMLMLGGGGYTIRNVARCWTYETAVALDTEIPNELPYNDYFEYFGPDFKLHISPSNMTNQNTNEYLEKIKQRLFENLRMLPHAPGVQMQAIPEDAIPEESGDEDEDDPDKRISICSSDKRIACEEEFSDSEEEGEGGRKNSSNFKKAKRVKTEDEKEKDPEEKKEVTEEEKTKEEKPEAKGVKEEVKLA", "experiment": "HDAC1 enzymatic inhibition", "format": "biochemical"}, "PC-3 tumors": {"tested_on": "PC-3 tumors", "settings": "cited from earlier work; for tumor growth: IP, 28 days, 0.5 mg/kg; for mortality or body-weight loss: during the treatment, 0.5 mg/kg IP"}, "[2]": {"tested_on": "nonmalignant cells (267-B1 and RWPE-1)", "settings": "cited from earlier work"}, "total HDACs": {"tested_on": "total HDACs", "settings": "read-out: Total HDAC (IC50); cited from earlier work"}, "[3]": {"tested_on": "Ac-H4 in spleen, brain and liver", "settings": "0.5 to 400 mg/kg, after 4 h treatment, dose-dependent; cited from earlier work"}, "[4]": {"tested_on": "prostate cancer cells (PC-3 and LNCap)", "settings": "cited from earlier work"}, "Caco-2 cells": {"tested_on": "Caco-2 cells", "settings": "cited from earlier work; for permeability classification: moderately permeable = 2 × 10^−6 cm/s < Papp(A–B) < 20 × 10^−6 cm/s"}, "[5]": {"settings": "mice, 400 mg/kg, IP, plasma; cited from earlier work"}, "HDAC6 [6]": {"target": "T1, HDAC6", "settings": "read-out: HDAC6 IC50, cited from earlier work"}, "[7]": {"settings": "IP, cited from earlier work; for behavior of the mice: 0.5 to 400 mg/kg"}, "primary cortical neurons [8]": {"tested_on": "primary cortical neurons", "settings": "cited from earlier work; for neuroprotection: at 10 μM"}, "primary cortical neurons [9]": {"tested_on": "primary cortical neurons", "settings": "5 μM, 24 h; cited from earlier work"}, "[10]": {"tested_on": "N2a cells overexpressing hAPP", "settings": "5 μM, 24 h; cited from earlier work"}, "dendritic spine density": {"tested_on": "dendritic spine density", "settings": "50 mg/kg, IP; cited from earlier work"}, "[11]": {"tested_on": "monomorphic malignant human glioma cells (A172, U373MG, and T98G)", "settings": "cited from earlier work"}, "hAPP 3 × Tg mice": {"tested_on": "hAPP 3 × Tg mice", "settings": "50 mg/kg, IP, four weeks, cited from earlier work"}, "HDAC8": {"target": "T2, HDAC8 (Homo sapiens, UniProt Q9BY41)", "T2 sequence (Q9BY41 1-377)": "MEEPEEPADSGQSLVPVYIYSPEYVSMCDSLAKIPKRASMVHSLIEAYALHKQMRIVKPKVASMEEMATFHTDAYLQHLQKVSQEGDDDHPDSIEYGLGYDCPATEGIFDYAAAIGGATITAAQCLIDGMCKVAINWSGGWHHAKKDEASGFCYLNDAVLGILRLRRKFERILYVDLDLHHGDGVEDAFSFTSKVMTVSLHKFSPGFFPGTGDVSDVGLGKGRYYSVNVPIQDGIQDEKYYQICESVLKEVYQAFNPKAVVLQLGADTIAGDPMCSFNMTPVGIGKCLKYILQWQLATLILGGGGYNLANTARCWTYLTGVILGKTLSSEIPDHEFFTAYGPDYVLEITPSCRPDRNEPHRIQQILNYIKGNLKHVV", "settings": "read-out: HDAC8 IC50; cited from earlier work"}},
  "note": "pIC50: −log10 of the molar value. Read-outs that look alike come from different tables or passages of the source.",
  "data": [
    {"smiles": "O=C(CS)NCCCCCC(=O)Nc1ccccc1", "note": "[Compound 11]", "values": [
      {"measurement": "pIC50", "setting": "HDAC2", "result": "< 4.52"},
      {"measurement": "pIC50", "setting": "HDAC6 [1]", "result": 6.47},
      {"measurement": "SI, HDAC1/6 selectivity index", "setting": "HDAC6 [1]; HDAC1/HDAC6, text prints -folds", "result": 11.1},
      {"measurement": "pIC50", "setting": "HDAC1", "result": 5.42}
    ]},
    {"smiles": "CN(C)c1ccc(C(=O)NCCCCCNC(=O)CS)cc1", "note": "[Compound 20]", "values": [
      {"measurement": "tumor growth", "setting": "PC-3 tumors", "result": "significant inhibition on the tumor growth"},
      {"measurement": "mortality or body-weight loss", "setting": "PC-3 tumors", "result": "no mortality or body-weight loss"},
      {"measurement": "inhibitory effects on nonmalignant cells", "setting": "[2]", "result": "no apparent inhibitory effects"},
      {"measurement": "pIC50", "setting": "total HDACs", "result": 6.70},
      {"measurement": "Ac-H4 levels in the spleen", "setting": "[3]", "result": "significantly increased"},
      {"measurement": "anti-proliferative effects", "setting": "[4]", "result": "low-micromolar levels of anti-proliferative effects"},
      {"measurement": "permeability classification", "setting": "Caco-2 cells", "result": "moderately permeable"},
      {"measurement": "CL", "setting": "[5]", "result": "4.87 ± 0.2", "unit": "L/h"},
      {"measurement": "pIC50", "setting": "HDAC6 [6]; Table 1", "result": 6.96},
      {"measurement": "behavior of the mice", "setting": "[7]", "result": "remain normal"}
    ]},
    {"smiles": "Cc1onc(-c2ccccc2)c1C(=O)NCCCCCNC(=O)CS", "note": "[Compound 34]", "values": [
      {"measurement": "neuroprotection", "setting": "primary cortical neurons [8]", "result": "full neuroprotection"}
    ]},
    {"smiles": "Cc1onc(-c2ccccc2)c1C(=O)NCCCCCNC(=O)[C@H](C)S", "note": "[Compound 37]", "values": [
      {"measurement": "prevention of glutathione depletion", "setting": "primary cortical neurons [8]", "result": "ability to prevent glutathione depletion"}
    ]},
    {"smiles": "Cc1onc(-c2ccccc2)c1COCCCCCNC(=O)[C@H](C)S", "note": "[Compound 41]", "values": [
      {"measurement": "prevention of glutathione depletion", "setting": "primary cortical neurons [8]", "result": "ability to prevent glutathione depletion"}
    ]},
    {"smiles": "Cc1onc(-c2ccccc2)c1C=CCCCCCNC(=O)C(C)S", "note": "(stereo not drawn) [Compound 45]", "values": [
      {"measurement": "neuroprotection", "setting": "primary cortical neurons [8]", "result": "neuroprotective effects"}
    ]},
    {"smiles": "Cc1noc(-c2ccccc2)c1C#CCCCCCNC(=O)C(C)S", "note": "(stereo not drawn) [Compound 49]", "values": [
      {"measurement": "neuroprotection", "setting": "primary cortical neurons [8]", "result": "neuroprotective effects"}
    ]},
    {"smiles": "Cc1noc(-c2cccc(F)c2)c1C#CCCCCCNC(=O)C(C)S", "note": "(stereo not drawn) [Compound 50]", "values": [
      {"measurement": "neuroprotection", "setting": "primary cortical neurons [8]", "result": "neuroprotective effects"}
    ]},
    {"smiles": "O=C(CS)NCCCCCC(=O)Nc1cccc2cccnc12", "note": "[Compound 63]", "values": [
      {"measurement": "tumor growth", "setting": "PC-3 tumors", "result": "significant inhibition on the tumor growth"},
      {"measurement": "mortality or body-weight loss", "setting": "PC-3 tumors", "result": "no mortality or body-weight loss"},
      {"measurement": "inhibitory effects on nonmalignant cells", "setting": "[2]", "result": "no apparent inhibitory effects"},
      {"measurement": "pIC50", "setting": "total HDACs", "result": 7.40},
      {"measurement": "Ac-H4 levels in the spleen", "setting": "[3]", "result": "significantly increased"},
      {"measurement": "anti-proliferative effects", "setting": "[4]", "result": "low-micromolar levels of anti-proliferative effects"},
      {"measurement": "transporters responsible for the efflux", "setting": "Caco-2 cells", "result": "P-glycoprotein (P-gp) and multidrug resistance-associated protein 1 (MRP1)"},
      {"measurement": "permeability classification", "setting": "Caco-2 cells", "result": "moderately permeable"},
      {"measurement": "CL", "setting": "[5]", "result": "4.05 ± 0.15", "unit": "L/h"},
      {"measurement": "increase of cell surface APP", "setting": "primary cortical neurons [9]", "result": "two-fold"},
      {"measurement": "increase of cell surface APP", "setting": "[10]", "result": "two-fold"},
      {"measurement": "pIC50", "setting": "HDAC6 [6]; Table 3", "result": 7.05},
      {"measurement": "dendritic spine density", "setting": "dendritic spine density", "result": "promotes dendritic spine density"},
      {"measurement": "levels of Ac-H3", "setting": "[11]; A172 and U373MG cells", "result": "without influence"},
      {"measurement": "levels of Ac-Tub", "setting": "[11]; A172 and U373MG cells", "result": "significantly enhanced"},
      {"measurement": "cell migration and invasion", "setting": "[11]; A172 cells", "result": "reduced cell migration and invasion"},
      {"measurement": "phosphorylation of FAK/STAT3", "setting": "[11]", "result": "suppress the phosphorylation of FAK/STAT3"},
      {"measurement": "cytotoxicity in glioma cells", "setting": "[11]; concentrations up to 50 μM", "result": "did not show cytotoxicity"},
      {"measurement": "time to full recovery", "setting": "[7]; 400 mg/kg", "result": "≤ 1", "unit": "h"},
      {"measurement": "behavior of the mice", "setting": "[7]", "result": "incapacitated 15 min after treating"},
      {"measurement": "Aβ levels", "setting": "hAPP 3 × Tg mice", "result": "decreased"},
      {"measurement": "phosphorylated tau (Thr181) levels", "setting": "hAPP 3 × Tg mice", "result": "decreased"},
      {"measurement": "learning and memory deficits", "setting": "hAPP 3 × Tg mice; aged mice (9-10-month-old)", "result": "alleviated the learning and memory deficits"}
    ]},
    {"smiles": "O=C(CS)NCCCCCn1ccc2cc(Cl)c(Cl)cc21", "note": "[Compound 74]", "values": [
      {"measurement": "pIC50", "setting": "HDAC6 [1]", "result": 5.63},
      {"measurement": "SI, HDAC1/6 selectivity index", "setting": "HDAC6 [1]", "result": ">12.8"},
      {"measurement": "pIC50", "setting": "HDAC1", "result": "< 4.52"}
    ]},
    {"smiles": "O=C(NO)c1ccccc1", "note": "[phenylhydroxamate, reference compound]", "values": [
      {"measurement": "pIC50", "setting": "HDAC6 [6]", "result": 6.94},
      {"measurement": "pIC50", "setting": "HDAC8", "result": 5.72}
    ]}
  ]
}
